Laboratory results taken from ChEMBL document CHEMBL1157515, “Discovery of a novel class of 2-ureido thiophene carboxamide checkpoint kinase inhibitors” (Bioorg Med Chem Lett, 2008).

Tests used:
[1] = target: T1, Serine/threonine-protein kinase Chk1 (Homo sapiens, UniProt O14757); assay: Inhibition of Chk1
T1 sequence (O14757 whole entry): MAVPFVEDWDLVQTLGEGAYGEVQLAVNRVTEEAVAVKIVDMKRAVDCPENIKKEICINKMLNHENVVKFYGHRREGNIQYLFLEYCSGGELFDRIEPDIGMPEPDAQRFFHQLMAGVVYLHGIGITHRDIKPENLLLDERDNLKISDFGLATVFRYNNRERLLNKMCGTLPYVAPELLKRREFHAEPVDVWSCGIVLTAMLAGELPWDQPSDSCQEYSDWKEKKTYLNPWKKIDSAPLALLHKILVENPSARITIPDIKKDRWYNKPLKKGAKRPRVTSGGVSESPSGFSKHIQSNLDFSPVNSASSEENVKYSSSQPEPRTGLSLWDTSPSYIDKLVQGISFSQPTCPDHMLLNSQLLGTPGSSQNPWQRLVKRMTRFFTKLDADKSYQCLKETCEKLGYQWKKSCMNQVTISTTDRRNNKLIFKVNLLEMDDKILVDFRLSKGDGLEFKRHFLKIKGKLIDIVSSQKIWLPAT

[2] = test system: HT-29; assay: Abrogation of camptothecin induced cell cycle arrest at G2/M phase in human HT29 cells; assay type: functional, cell-based
[3] = Half life in dog; assay type: ADME, organism-based, Canis lupus familiaris; settings: in vivo
[4] = Inhibition of CYP; assay type: ADME
[5] = Lipophilicity, log D of the compound; assay type: physicochemical; settings: octanol/water
[6] = target: Voltage-gated inwardly rectifying potassium channel KCNH2 (Homo sapiens, UniProt Q12809); assay: Inhibition of human ERG
[7] = Clearance in mouse; assay type: ADME, organism-based; settings: in vivo
[8] = Oral bioavailability in dog; assay type: ADME, organism-based, Canis lupus familiaris; settings: in vivo
[9] = Solubility of the compound; assay type: physicochemical
[10] = Clearance in dog; assay type: ADME, organism-based, Canis lupus familiaris; settings: in vivo
[11] = Half life in mouse; assay type: ADME, organism-based; settings: in vivo

Chain of Voltage-gated inwardly rectifying potassium channel KCNH2 (Q12809 whole entry): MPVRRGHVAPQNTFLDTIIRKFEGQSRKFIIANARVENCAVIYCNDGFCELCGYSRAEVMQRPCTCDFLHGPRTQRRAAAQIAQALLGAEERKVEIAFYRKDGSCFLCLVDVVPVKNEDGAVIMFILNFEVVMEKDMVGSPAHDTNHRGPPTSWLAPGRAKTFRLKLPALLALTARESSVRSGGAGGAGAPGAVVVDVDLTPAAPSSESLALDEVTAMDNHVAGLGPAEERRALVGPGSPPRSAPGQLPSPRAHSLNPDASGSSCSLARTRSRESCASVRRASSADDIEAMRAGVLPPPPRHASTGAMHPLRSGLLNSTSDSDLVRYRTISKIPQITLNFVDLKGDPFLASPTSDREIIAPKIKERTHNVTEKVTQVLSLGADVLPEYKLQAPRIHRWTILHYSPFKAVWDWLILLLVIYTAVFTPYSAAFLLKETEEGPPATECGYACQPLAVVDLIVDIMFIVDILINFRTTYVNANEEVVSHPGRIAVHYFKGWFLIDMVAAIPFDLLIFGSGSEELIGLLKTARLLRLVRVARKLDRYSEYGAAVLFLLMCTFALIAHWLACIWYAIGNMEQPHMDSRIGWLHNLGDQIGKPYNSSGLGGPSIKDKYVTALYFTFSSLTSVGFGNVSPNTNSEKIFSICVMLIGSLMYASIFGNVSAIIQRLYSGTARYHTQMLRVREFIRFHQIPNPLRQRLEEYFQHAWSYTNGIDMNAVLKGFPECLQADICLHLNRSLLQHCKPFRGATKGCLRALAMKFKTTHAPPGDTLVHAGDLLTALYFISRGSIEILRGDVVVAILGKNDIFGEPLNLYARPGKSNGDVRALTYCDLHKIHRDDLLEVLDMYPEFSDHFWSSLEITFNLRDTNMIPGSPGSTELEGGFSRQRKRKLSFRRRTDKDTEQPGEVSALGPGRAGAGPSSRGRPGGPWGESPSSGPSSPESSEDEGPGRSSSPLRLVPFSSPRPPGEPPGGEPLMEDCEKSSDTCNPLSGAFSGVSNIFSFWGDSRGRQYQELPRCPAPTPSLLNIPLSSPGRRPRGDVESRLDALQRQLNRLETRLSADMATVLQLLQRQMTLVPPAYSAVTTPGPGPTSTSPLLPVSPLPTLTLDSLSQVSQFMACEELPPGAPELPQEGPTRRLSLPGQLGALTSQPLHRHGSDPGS

| Structure (SMILES) | IC50 [1] [nM] | EC50 ([2]; Homo sapiens, HT-29) [nM] | also measured |
| --- | --- | --- | --- |
| CNCc1ccc(-c2cc(C(N)=O)c(NC(N)=O)s2)cc1 | > 300 |  |  |
| CCN(CC)CCOc1ccc(-c2cc(C(=O)Nc3cccc(CO)c3)c(NC(N)=O)s2)cc1 | 50 | > 12500 |  |
| CN(C)CCOc1ccc(-c2cc(C(N)=O)c(NC(N)=O)s2)cc1 |  | > 12500 |  |
| COc1ccc(-c2cc(C(N)=O)c(NC(N)=O)s2)cc1 | 5000 |  |  |
| COCCNCc1ccc(-c2cc(C(N)=O)c(NC(N)=O)s2)cc1 | 72 |  |  |
| CN(CCO)Cc1ccc(-c2cc(C(N)=O)c(NC(N)=O)s2)cc1 | 31 |  |  |
| CN(C)CCCOc1ccc(-c2cc(C(N)=O)c(NC(N)=O)s2)cc1 | 230 |  |  |
| NC(=O)Nc1sc(-c2ccc(OCCN3CCCCC3)cc2)cc1C(N)=O | 230 |  |  |
| NC(=O)Nc1sc(-c2ccc(OCCOCC3CC3)cc2)cc1C(N)=O | 23000 |  |  |
| COCCOCCOc1ccc(-c2cc(C(N)=O)c(NC(N)=O)s2)cc1 | 4100 |  |  |
| NC(=O)Nc1sc(-c2ccc(CNC3CCCC3)cc2)cc1C(N)=O | 39 |  |  |
| COCCOc1ccc(-c2cc(C(N)=O)c(NC(N)=O)s2)cc1 | 6700 |  |  |
| CN(CCN)C(=O)c1cc(-c2ccccc2)sc1NC(N)=O | 5500 |  |  |
| NC(=O)Nc1sc(-c2ccccc2)cc1C(=O)NC1CCOCC1 | 2100 |  |  |
| CNCCNC(=O)c1cc(-c2ccccc2)sc1NC(N)=O | 100 | 580 |  |
| CN(C)CCNC(=O)c1cc(-c2ccccc2)sc1NC(N)=O | 110 | 4100 |  |
| CC1(C)CCCC(C)(C)N1Cc1ccc(-c2cc(C(N)=O)c(NC(N)=O)s2)cc1 | 17 |  |  |
| CCN(CC)CCOc1ccc(-c2cc(C(=O)Nc3cccnc3)c(NC(N)=O)s2)cc1 | 100 | > 12500 |  |
| CCN(CC)CCOc1ccc(-c2cc(C(=O)NC3CCNCC3)c(NC(N)=O)s2)cc1 | 35 | > 12500 |  |
| NC(=O)Nc1sc(-c2ccccc2)cc1C(=O)NC1CCCCC1 | 3900 |  |  |
| NC(=O)Nc1sc(-c2ccccc2)cc1C(=O)Nc1ccccc1 | 1000 |  |  |
| NC(=O)Nc1sc(-c2ccccc2)cc1C(=O)NCC1CNCCO1 (stereo unspecified) | 300 |  |  |
| NC(=O)Nc1sc(-c2ccccc2)cc1C(=O)NC[C@H]1CCCNC1 | 100 | 2100 |  |
| NC(=O)Nc1sc(-c2ccccc2)cc1C(=O)NC[C@@H]1CCCNC1 | 100 | 6200 |  |

| Structure (SMILES) | IC50 [1] [nM] | EC50 ([2]; Homo sapiens, HT-29) [nM] | also measured |
| --- | --- | --- | --- |
| NC(=O)Nc1sc(-c2ccccc2)cc1C(=O)NC1CNCCNC1=O (stereo unspecified) | 110 |  |  |
| NC(=O)Nc1sc(-c2ccccc2)cc1C(=O)N[C@@H]1CN2CCC1CC2 | 130 |  |  |
| CN1CCC[C@@H](NC(=O)c2cc(-c3ccccc3)sc2NC(N)=O)C1 | 160 | 2300 |  |
| NC(=O)Nc1sc(-c2ccccc2)cc1C(=O)N[C@H]1CCCNC1 |  |  | half-life [3]: 5.2 h; IC50 [4]: > 10000 nM; logD [5]: 1.28; IC50 [6]: > 31600 nM; clearance [7]: 35.7 mL/min/kg; bioavailability [8]: 78.8%; solubility [9]: > 2000 µM; clearance [10]: 12.8 mL/min/kg; half-life [11]: 1.5 h |
| COc1ccc(Nc2cc(-c3cccnc3)[nH]n2)cc1OC | 600 |  |  |
| NC(=O)Nc1sc(-c2cccnc2)cc1C(=O)N[C@H]1CCCNC1 | 6 |  | EC50 ([2]; ht-29): 300 nM |
| NC(=O)Nc1sc(-c2ccncc2)cc1C(=O)N[C@H]1CCCNC1 | 4 |  | EC50 ([2]; ht-29): 340 nM |
| NC(=O)Nc1sc(-c2ccccc2)cc1C(=O)NC1CCNCC1 | 110 |  |  |
| NC(=O)Nc1sc(-c2ccccc2)cc1C(=O)N1CCOCC1 | > 30000 |  |  |
| NC(=O)Nc1sc(-c2ccc(CN3CCCCC3)cc2)cc1C(N)=O | 37 | 270 |  |
| NCCNC(=O)c1cc(-c2ccccc2)sc1NC(N)=O | 30 | 960 |  |
| NC(=O)Nc1sc(-c2ccc(OC(F)(F)F)cc2)cc1C(N)=O | 2600 |  |  |
| COc1ccc(CNCc2ccc(-c3cc(C(N)=O)c(NC(N)=O)s3)cc2)cc1 | 29 |  |  |
| CNCCOc1ccc(-c2cc(C(N)=O)c(NC(N)=O)s2)cc1 | 360 |  |  |
| NC(=O)Nc1sc(-c2ccccc2)cc1C(=O)NC1CCCCNC1=O (stereo unspecified) | 23000 | > 13000 |  |
| NC(=O)Nc1sc(-c2ccccc2)cc1C(=O)NCCO | 5100 |  |  |
| NC(=O)Nc1sc(-c2ccccc2)cc1C(=O)N[C@H]1CN2CCC1CC2 | 980 |  |  |
| CN1CCN(Cc2ccc(-c3cc(C(N)=O)c(NC(N)=O)s3)cc2)CC1 | 41 |  |  |
| NC(=O)Nc1sc(-c2ccccc2)cc1C(=O)NCc1ccccc1 | > 10000 |  |  |
| NC(=O)Nc1sc(-c2cccc(F)c2)cc1C(=O)N[C@H]1CCCNC1 | 11 |  | EC50 ([2]; ht-29): 20 nM |
| CN1CCN(C(=O)c2cc(-c3ccccc3)sc2NC(N)=O)CC1 | 7100 |  |  |
| CCN(CC)CCOc1cccc(-c2cc(C(=O)N[C@H]3CCCNC3)c(NC(N)=O)s2)c1 | < 10 | 1100 |  |
| NC(=O)Nc1sc(-c2ccccc2)cc1C(=O)N[C@@H]1CCCNC1 |  |  | EC50 ([2]; ht-29): 1900 nM |
| CCN(CC)CCOc1cccc(-c2cc(C(=O)NC3CCCNC3)c(NC(N)=O)s2)c1 (racemic) | 10 | 2600 |  |

Continued, in another order:

| IC50 [1] [nM] | EC50 ([2]; Homo sapiens, HT-29) [nM] | Structure (SMILES) | also measured |
| --- | --- | --- | --- |
| 7 | 1200 | NC(=O)Nc1sc(-c2ccc(O)cc2)cc1C(=O)N[C@H]1CCCNC1 |  |
| 9 | 80 | NC(=O)Nc1sc(-c2ccccc2F)cc1C(=O)N[C@H]1CCCNC1 |  |
| 100 | > 12500 | CCN(CC)CCOc1ccc(-c2cc(C(=O)NC3CCNC3)c(NC(N)=O)s2)cc1 (stereo unspecified) |  |
| 6 | 80 | N#Cc1ccc(-c2cc(C(=O)N[C@H]3CCCNC3)c(NC(N)=O)s2)cc1 |  |
| 19 | 170 | NC(=O)Nc1sc(-c2ccc(C(F)(F)F)cc2)cc1C(=O)N[C@H]1CCCNC1 |  |
| 10 | 40 | NC(=O)Nc1sc(-c2ccc(Cl)cc2)cc1C(=O)N[C@H]1CCCNC1 |  |
| 5 | 8100 | NC(=O)Nc1sc(-c2cccc(C(N)=O)c2)cc1C(=O)N[C@H]1CCCNC1 |  |
| 3 | 110 | NC(=O)Nc1sc(-c2ccccc2)cc1C(=O)N[C@@H]1CCCCNC1 |  |
| 11 | 130 | NC(=O)Nc1sc(-c2ccc(C(=O)N3CCCCC3)cc2)cc1C(=O)N[C@H]1CCCNC1 |  |
| 13 | 920 | NC(=O)Nc1sc(-c2ccc(N)cc2)cc1C(=O)N[C@H]1CCCNC1 |  |
| 9 | 4300 | CNC(=O)c1ccc(-c2cc(C(=O)N[C@H]3CCCNC3)c(NC(N)=O)s2)cc1 |  |
| 41 | 2200 | CS(=O)(=O)Nc1ccc(-c2cc(C(=O)N[C@H]3CCCNC3)c(NC(N)=O)s2)cc1 |  |
| 7 | 60 | CC(=O)c1ccc(-c2cc(C(=O)N[C@H]3CCCNC3)c(NC(N)=O)s2)cc1 |  |
| 41 | 90 | CN(C)c1ccc(-c2cc(C(=O)N[C@H]3CCCNC3)c(NC(N)=O)s2)cc1 |  |
| 10 | 610 | NC(=O)Nc1sc(-c2ccc(C(=O)N3CCOCC3)cc2)cc1C(=O)N[C@H]1CCCNC1 |  |
| 8 | 1800 | CC(=O)Nc1cccc(-c2cc(C(=O)N[C@H]3CCCNC3)c(NC(N)=O)s2)c1 |  |
| 10 | 70 | Cc1ccc(-c2cc(C(=O)N[C@H]3CCCNC3)c(NC(N)=O)s2)cc1 |  |
| 14 | 40 | NC(=O)Nc1sc(-c2cccc(Cl)c2)cc1C(=O)N[C@H]1CCCNC1 |  |
| 9 | 30 | NC(=O)Nc1sc(-c2ccc(F)cc2)cc1C(=O)N[C@H]1CCCNC1 |  |
|  | 17 | CCN(CC)CCOc1ccc(-c2cc(C(=O)NC3CCCNC3)c(NC(N)=O)s2)cc1 (stereo unspecified) |  |
| 5 | 3200 | NC(=O)Nc1sc(-c2ccc(C(N)=O)cc2)cc1C(=O)N[C@H]1CCCNC1 |  |
| 3 | < 8 | NC(=O)Nc1sc(-c2cccs2)cc1C(=O)N[C@H]1CCCNC1 |  |
| 6 | < 9 | NC(=O)Nc1sc(-c2ccsc2)cc1C(=O)N[C@H]1CCCNC1 |  |
| 6 | 200 | CS(=O)(=O)c1ccc(-c2cc(C(=O)N[C@H]3CCCNC3)c(NC(N)=O)s2)cc1 |  |
| 9 | 320 | CN(C)C(=O)c1ccc(-c2cc(C(=O)N[C@H]3CCCNC3)c(NC(N)=O)s2)cc1 |  |
